# Data published in patent publication US9334487B2, “Methods for diagnosing rheumatoid arthritis” (Imperial Innovations Limited, priority 2007, dated 2016).
# “And” between values parts separate entries of the source, which are not always exact repeats. Equal values may be shown once. “Also recorded” adds a separate entry of the source. Bridges are numbered along the chain shown (N, C = ends). Where no end group is shown, it is not given here. [ ]: non-standard residue; d: D form. Cit = NC(=O)NCCC[C@H](N)C(=O)O
# How the values were obtained:
# [1] = tested on: anti-Peptide 1A and anti-CCP antibodies in serum; assay: Serology over time in 24 RA patients treated with MTX or MTX+INF; format: binding, human
# Description: Serum samples were obtained with informed consent and ethical approval from 102 patients with RA and 92 (or 110 patients for the results generally shown in FIGS. 9 to 16) patients with other arthritidies (including systemic lupus erythematosus (n=32), Sjogrens syndrome (n=31), psoriatic arthritis (n=5), Behçet's syndrome (n=18; FIGS. 9 to 16) and miscellaneous other rheumatic diseases (n=24). 92 control serum samples were obtained from healthy volunteers. An additional cohort of 24 patients with RA undergoing treatment with either methotrexate (MTX) alone (n=13) or methotrexate in combination with Infliximab (INF) (n=11) were collected before treatment as well as 6, 18 and 52 weeks post treatment. Disease activity score (DAS 28), erythrocyte sedimentation rate (ESR) and C-reactive protein (CRP) were measured for each patient at the same time points, i.e. 0, 6, 18 an 52 weeks post treatment. […]
# 96-well plates (Maxisorp; Nunc, Roskilde, Denmark) were coated with α-enolase peptides at 10 μg/ml (diluted in a 50 mM carbonate buffer, pH 9.6), or with carbonate buffer alone, and incubated over night at 4° C. […] After a final wash (PBS-Tween, 0.05%), bound antibodies were detected with TMB substrate (KPL, Maryland, USA). The reaction was stopped by the addition of 1M H2SO4 and absorbance measured at 450 nm in a Multiscan Ascent microplate reader (Thermo Labsystems). […]
# [2] = Disease activity score DAS28 (CRP and ESR) in treated RA patients; format: in vivo, human; conditions: 6, 18 and 52 weeks post treatment; MTX n=13, MTX+INF n=11
# Description: (§1) Serum samples were obtained with informed consent and ethical approval from 102 patients with RA and 92 (or 110 patients for the results generally shown in FIGS. 9 to 16) patients with other arthritidies (including systemic lupus erythematosus (n=32), Sjogrens syndrome (n=31), psoriatic arthritis (n=5), Behçet's syndrome (n=18; FIGS. 9 to 16) and miscellaneous other rheumatic diseases (n=24). 92 control serum samples were obtained from healthy volunteers. An additional cohort of 24 patients with RA undergoing treatment with either methotrexate (MTX) alone (n=13) or methotrexate in combination with Infliximab (INF) (n=11) were collected before treatment as well as 6, 18 and 52 weeks post treatment. Disease activity score (DAS 28), erythrocyte sedimentation rate (ESR) and C-reactive protein (CRP) were measured for each patient at the same time points, i.e. 0, 6, 18 an 52 weeks post treatment. All patients attended the Rheumatology Clinic at Charing Cross Hospital, London. An independent cohort from the US included serum samples from 81 RA patients, taken at baseline in a clinical trial at the Omaha Veterans Affairs Medical Centre, University of Nebraska, USA, and 82 serum samples from healthy volunteers. All RA patients met the American College of Rheumatology (ACR) classification criteria (43).
# [3] = tested on: serum IgG of RA patients, disease controls and healthy controls; assay: ELISA for IgG antibodies to cyclic α-enolase peptides, UK cohort sera; format: binding, human; conditions: for % positive, RA (n = 102): UK cohort RA sera; for % positive, RA (n = 102) / % positive, Disease controls (n = 110) / % positive, Healthy controls (n = 92): cut-off OD450 = 0.1
# Description: as §1
# Fifteen cyclic 15 to 23-mer peptides were synthesised at Cambridge Research Biochemicals (Cleveland, UK). The peptide sequences corresponded to amino acid sequences in human α-enolase (SwissProt accession number P06733) or P. gingivalis enolase (SwissProt accession number AAQ66821), with the addition of cysteine residues at the amino- and carboxy-termini and the exchange of citrulline for arginine residues at certain positions, as shown in Tablet and Table 2 below.
# (§2) 96-well plates (Maxisorp; Nunc, Roskilde, Denmark) were coated with α-enolase peptides at 10 μg/ml (diluted in a 50 mM carbonate buffer, pH 9.6), or with carbonate buffer alone, and incubated over night at 4° C. Wells were washed with PBS-Tween (0.05%) and blocked with 2% BSA (diluted in PBS) for 3 hours at room temperature. Sera were diluted 1:50 in RIA-buffer (10 mM Tris, 1% BSA, 350 mM NaCl, 1% Triton-X, 0.5% Na-deoxychlate, 0.1% SDS) supplemented with 10% FCS, added in duplicates and incubated for 1.5 hour at room temperature. Plates were washed as described above and incubated with peroxidase-conjugated mouse anti-human IgG (Hybridoma Reagent Laboratory, Baltimore, USA) (diluted 1:1000 in RIA-buffer, 10% FCS) for 1 hour at room temperature. After a final wash (PBS-Tween, 0.05%), bound antibodies were detected with TMB substrate (KPL, Maryland, USA). The reaction was stopped by the addition of 1M H2SO4 and absorbance measured at 450 nm in a Multiscan Ascent microplate reader (Thermo Labsystems). A control serum was included on all plates to correct for plate-to-plate variation. Background OD450 (wells coated with only carbonate buffer) was subtracted from peptide OD450 for every serum tested. Values above 0.1 were taken as positive. ELISA on the US serum samples were performed in a similar manner, but with 2% BSA in carbonate buffer as background, and with an OD cut-off of 0.2 for positive samples. Anti-CCP antibody status was analysed using the CCP2 kit (Eurodiagnostica, Malmo, Sweden), according to the manufacturer's instructions.
# [4] = tested on: serum antibodies of SLE patients; assay: ELISA of SLE patient sera on α-enolase peptides (Example 2); format: binding, human; conditions: 29 SLE patients; OD450 below 0.1 negative
# Method: Sera from 29 patients diagnosed with systemic lupus erythromatosus (SLE) were tested by ELISA for reactivity with 11 citrullinated α-enolase peptides, namely Peptide 1A, 1B, 1D and Peptides 2 to 9 as shown in Table 1. The ELISA assay was as described in Example 1.
# The quantity of antibody, from each patient sample, binding to each peptide, is reflected by the OD (450 nm) in the ELISA assay. The OD (450 nm) corresponding to the background (buffer only) was subtracted. The results, after subtraction of background, are depicted in FIG. 8A. All OD (450 nm) values below 0.1 were considered negative (=0).
# [5] = tested on: anti-CEP-1 antibodies in anti-CEP-1 positive RA sera; assay: Liquid phase inhibition of binding to CEP-1-coated plates; parameters: species or system human; conditions: six anti-CEP-1 positive RA sera pre-incubated with 0, 1, 10 and 100 μg/ml peptide
# Method: Inhibition experiments were performed in liquid phase on six anti-CEP-1 positive RA serum samples or on solid phase using serum from nine double positive (anti-CEP-1 and CCP positive) RA patients. Sera were either pre-incubated for 2 hours in RIA-buffer containing increasing concentrations (0, 1, 10 and 100 μg/ml) of CEP-1, control peptide 1D, peptide 4, peptide 7, peptide 9 or peptide 11, or pre-absorbed on plates coated with CEP-1, carbonate buffer alone or pre-absorbed on commercial CCP2 plates. To eliminate antigen-antibody complexes, the liquid phase mixtures were centrifuged at 13 000 rpm, for 15 minutes, before the supernatants were transferred to CEP-1-coated plates and assessed as described above Inhibition of binding to CEP-1, for serum samples pre-absorbed to CCP, was calculated in relation to the maximum inhibition, which by definition was set to 100% for samples pre-incubated with CEP-1.
# [6] = tested on: serum IgG of RA patients and healthy controls (US cohort); assay: anti-CEP-1 antibody ELISA, independent US cohort; format: binding, human
# Description: as §1
# as §2, with “ELISA on the US serum samples were performed in a similar manner, but with 2% BSA in carbonate buffer as background, and with an OD cut-off of 0.2 for positive samples.” left out, “instructions. […]” for “instructions.”
# [7] = tested on: serum antibodies of RA patients and healthy controls grouped by CCP status; assay: ELISA for reactivity with CEP-1, Swedish EIRA cohort (Example 3); format: binding, human
# Method: Sera from healthy controls and 511 rheumatoid arthritis patients from the Swedish EIRA (Epidemiological Investigation of Rheumatoid Arthritis) cohort (Stolt et al, Quantification of the influence of cigarette smoking on RA, Ann Rheum Dis, 2003; 62:835-841), were tested for antibodies to cyclic citrullinated peptides using the commercially available anti-CCP ELISA. At least 600 healthy controls were screened and, amongst these, a rare population that were CCP positive (n=16) were identified. Two of these CCP positive individuals have developed RA since the blood samples were collected.
# Sera from the 511 rheumatoid arthritis patients, 16 CCP positive healthy controls and 126 CCP negative healthy controls were also screened by ELISA for reactivity with CEP-1 (Peptide 1A) as described in Example 1. The rheumatoid arthritis patients were divided into CCP positive (n=410) and CCP negative (n=101) groups.
# [8] = tested on: serum antibodies of RA patients and healthy controls; conditions: seven patients; cited from earlier work
# [9] = cut-off 98th percentile of controls
compound,measurement,setting,value
"CN(Cc1cnc2nc(N)nc(N)c2n1)c1ccc(C(=O)N[C@@H](CCC(=O)O)C(=O)O)cc1 [MTX, methotrexate]",anti-Peptide 1A antibody levels over time,"[1]; pre-treatment, 6, 18 and 52 weeks, not statistically significant",increased
same,DAS28 (CRP and ESR) change,[2],did not result in such statistically significant decrease; also recorded: did not change significantly
"cangwgvmvsh-X-sgetedtc (CANGWGVMVSH[Cit]SGETEDTC; disulfide 1-20 (inferred); listed as Homo sapiens) [Peptide 7, human α-enolase aa 362-379]","% positive, RA (n = 102)",[3],4%
same,"% positive, Disease controls (n = 110)",[3]; UK cohort,2%
same,"% positive, Healthy controls (n = 92)",[3]; UK cohort,2%
same,% of SLE sera scored positive,[4],3.4%
same,inhibition of antibody binding to CEP-1-coated plates,[5],no inhibition
same,inhibition of antibody binding to CEP-1-coated plates,[5]; listed as peptide 7,did not result in decreased antibody binding
"cf-X-sgkydldfkspddps-X-yc (CF[Cit]SGKYDLDFKSPDDPS[Cit]YC; disulfide 1-21 (inferred); listed as Homo sapiens) [Peptide 6, human α-enolase aa 252-270]","% positive, RA (n = 102)",[3],12%
same,"% positive, Disease controls (n = 110)",[3]; UK cohort,5%
same,"% positive, Healthy controls (n = 92)",[3]; UK cohort,0%
same,% of SLE sera scored positive,[4],3.4%
ckiha-X-eifds-X-gnptvec (CKIHA[Cit]EIFDS[Cit]GNPTVEC; disulfide 1-19 (inferred); listed as Homo sapiens) [Peptide 1A],% of healthy controls reactive,[3]; UK and US cohorts together,2%
same,"% positive, RA (n = 102)",[3],37.3%
same,"% positive, RA (n = 102)",[3]; listed as 1A(CEP-1),37%
same,% of anti-CCP negative RA patients positive,"[3]; UK cohort, anti-CCP negative RA sera",23%
same,"% positive, non-RA patient controls (n=92)","[3]; UK cohort, smaller disease control group",4.3%
same,"% positive, Disease controls (n = 110)",[3]; UK cohort,3%
same,"% positive, Healthy controls (n = 92)",[3]; UK cohort,2.2% and 2%
same,"% positive, Healthy controls (n = 92)","[3]; UK cohort, listed as 1A(CEP-1)",2%
same,specificity for RA,"[3]; UK cohort, disease controls (92 or 110) and 92 healthy controls",97%
same,anti-CEP-1 antibody status of patients with SLE and Behçet's disease,[3]; UK disease controls,uniformly negative
same,% of individuals without rheumatoid arthritis scored positive,[3]; summary statement,about 3% and ~2%
same,"specificity, US cohort","[6]; 82 healthy controls, no disease controls",98%
same,"% RA patients positive / sensitivity, US cohort (n=81)",[6]; [9],62%
same,"% healthy controls positive, US cohort (n=82)",[6]; [9],2%
same,"% positive for anti-CEP-1 antibodies, CCP+ RA (n=410)",[7]; Swedish EIRA cohort,Sixty
same,"% positive for anti-CEP-1 antibodies, CCP− RA (n=101)",[7]; Swedish EIRA cohort,17%
same,"% positive for anti-CEP-1 antibodies, CCP+ healthy controls (n=16)",[7]; Swedish cohort,25%
same,"% positive for anti-CEP-1 antibodies, CCP− healthy controls (n=126)",[7]; Swedish cohort,0.8%
same,inhibition of antibody binding to CEP-1-coated plates,[5],dose dependent decrease; also recorded: dose-dependent inhibition
same,sensitivity at start of study,"[1]; 24 RA patients, nine positive in each treatment group",75%
non-citrullinated protein: whole non-citrullinated α-enolase protein,% of RA patients also recognizing the non-citrullinated protein,[8],13%
